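Tested at 5 concentrations; 48 h exposure; 96-well plates; endpoints linearly interpolated, else capped at highest concentration. GI50 = concentration required for 50% inhibition of growth. TGI: total growth inhibition.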
Columns and labels:
Experiment in all cases: NCI-60 cell line screen, 48 h
BT-549 breast = test system: BT-549 breast
DU-145 prostate = test system: DU-145 prostate
HOP-62 NSCLC = test system: HOP-62 NSCLC
HOP-92 NSCLC = test system: HOP-92 NSCLC
LOX IMVI melanoma = test system: LOX IMVI melanoma
M14 melanoma = test system: M14 melanoma
MALME-3M melanoma = test system: MALME-3M melanoma
MDA-MB-435 = test system: MDA-MB-435
OVCAR-3 ovarian = test system: OVCAR-3 ovarian
T-47D breast = test system: T-47D breast

SMILES	TGI (BT-549 breast) [µM]	TGI (DU-145 prostate) [µM]	TGI (HOP-62 NSCLC) [µM]	TGI (HOP-92 NSCLC) [µM]	TGI (LOX IMVI melanoma) [µM]	TGI (M14 melanoma) [µM]	TGI (MALME-3M melanoma) [µM]	TGI (MDA-MB-435) [µM]	TGI (OVCAR-3 ovarian) [µM]	TGI (T-47D breast) [µM]	GI50 (BT-549 breast) [µM]	GI50 (DU-145 prostate) [µM]	GI50 (HOP-62 NSCLC) [µM]	GI50 (HOP-92 NSCLC) [µM]	GI50 (LOX IMVI melanoma) [µM]	GI50 (M14 melanoma) [µM]	GI50 (MALME-3M melanoma) [µM]	GI50 (MDA-MB-435) [µM]	GI50 (OVCAR-3 ovarian) [µM]	GI50 (T-47D breast) [µM]
CS(=O)(=O)CS(=O)(=O)OCCCl	181	748	151	824	497	770	1270	2330	983	1530	–	–	–	–	–	–	–	–	–	–
Cn1c(=S)c2[nH]c(SCCCc3ccccc3)nc2n(C)c1=O	> 100	> 100	> 100	> 100	> 100	> 100	> 100	> 100	> 100	> 100	–	–	–	–	–	–	–	–	–	–
COc1ccc(-c2cc(Nc3ccnc(N4CCOCC4)n3)on2)cc1	15.1	13.4	16.8	22.5	15.3	14.8	17.4	0.121	2.66	21.6	0.802	0.302	0.372	3.46	0.353	0.0957	0.289	0.0307	0.0728	0.566
CNC(C)[C@H]1CCC2C3CC=C4C(=O)[C@@H](NC(=O)C=C(C)C)CC[C@]4(C)C3CC[C@@]21C (stereo partly drawn)	8.42	16.9	3.63	10.3	2.98	3.45	3.47	3.27	6.04	5.05	2.34	4.53	1.7	0.977	1.35	1.72	1.64	1.36	1.82	0.925
Oc1ccc(/C=C/c2cc(O)cc3c2C(c2cc(O)cc(O)c2)C(c2ccc(O)c(O)c2)O3)cc1 (stereo not drawn)	64.4	> 100	> 100	> 100	> 100	> 100	80.6	> 100	56.4	> 100	–	–	–	–	–	–	–	–	–	–
C=CCn1c(SCC(=O)Nc2ccc(C(=O)/C=C/c3cc(OC)c(OC)c(OC)c3)cc2)nnc1-c1ccc(OC)cc1	0.546	16	1.75	16.4	1.03	2.58	36.8	1.6	1.02	5.73	0.209	0.453	0.691	2.25	0.28	0.404	1.89	0.327	0.343	0.455
O=C(N/N=C/c1ccc(O)cc1O)c1cccnc1	81.6	> 100	> 100	43.5	> 100	19.6	39.2	> 100	29.4	86	7.06	3.45	13.4	2.09	1.84	2.8	5.16	7.52	0.474	3.45
COc1cc(/C=C/C(=O)C(C(=O)/C=C/c2ccc(OC(=O)CCNC34CC5CC(CC(C5)C3)C4)c(OC)c2)C(=O)CCNC23CC4CC(CC(C4)C2)C3)ccc1OC(=O)CCNC12CC3CC(CC(C3)C1)C2 (stereo not drawn)	5.77	5.02	> 100	31.4	3.94	13.9	9.92	35.3	> 100	28.9	2.5	2.21	9.12	4.75	1.98	3.51	2.44	2.88	4.98	3.69
O=[N+]([O-])c1ccc(Sc2c3ccccc3nc3ccccc23)cn1	28.8	26.5	> 65.7	16.9	26.9	31.5	19.9	33.2	20.3	19.9	–	–	–	–	–	–	–	–	–	–
CC(=O)NC1CONC1=O (stereo not drawn)	> 100	> 100	> 100	> 100	> 100	> 100	> 100	> 100	> 100	> 100	–	–	–	–	–	–	–	–	–	–
C=C(C)[C@@H]1CC[C@]2(C)[C@H](CC[C@@H]3[C@@H]([C@@](C)(O)CCC=C(C)C)CC[C@]32C)[C@@]1(C)CCC(=O)O	35.8	32.4	45.3	27.2	31.8	36.1	28.2	38.6	29.8	> 100	16.8	16.7	18.6	12.7	17.9	16.4	14.4	17.9	15.9	21.5
COc1cc(/C=C/C(=O)Oc2ccccc2)ccc1C(=O)O/C=C/c1ccccc1	> 100	> 100	> 100	> 100	> 100	> 100	> 100	> 100	> 31.6	> 100	–	–	–	–	–	–	–	–	–	–
COc1cc2c3c(n(CCCN(CCO)CCO)c(=O)c2cc1OC)-c1cc2c(cc1C3=O)OCO2	13.6	1.27	–	4.18	0.158	0.17	23.4	0.842	0.295	> 22.7	0.586	< 0.01	< 0.01	–	< 0.01	< 0.01	0.67	< 0.0369	0.062	0.144
CCOC(=O)C1=C(N)Oc2c(sc3c(C)cccc23)C1c1ccc(F)cc1 (stereo not drawn)	12.6	13.5	20.1	13.4	12.3	14.5	20.8	0.464	13.1	26.4	2.07	0.849	0.618	2.13	0.596	0.486	0.588	0.21	0.403	2.61
CC(C)(C)c1cc(C(=O)/C=C/c2ccc(C(=O)O)cc2)cc(C(C)(C)C)c1	6.61	8.52	6.49	19.7	8.54	3.89	7.99	6.66	7.31	19.8	–	–	–	–	–	–	–	–	–	–
Cn1cc(S(=O)(=O)N2CCC3=Cc4c(cnn4-c4ccc(F)cc4)C[C@]3(C(=O)c3cc(C(F)(F)F)ccn3)C2)cn1	> 100	> 100	> 100	> 100	> 100	> 100	> 100	> 100	> 100	> 100	26.6	> 100	43	6.57	> 100	> 100	> 100	> 100	> 100	13.3
NCCCn1c2c(c3ccccc3c1=O)C(=O)c1ccccc1-2	12.4	3.71	0.64	19.1	0.702	3.47	1.46	3.07	5.25	0.951	1.47	0.118	0.0875	2.6	0.0649	0.628	0.156	0.7	0.721	0.162
O=C(Nc1ccc(Cl)cc1)Nc1nccs1	57.9	71.9	> 100	34	> 100	27.5	54.1	0.585	7.85	> 100	8.68	3.82	15.1	2.14	0.786	0.543	3.37	0.207	1.95	2.38
COc1ccc(-c2ccc(NNC(=O)c3ccc(F)cc3)nn2)cc1OC	> 100	> 100	> 100	99.3	> 100	> 100	> 100	> 100	> 100	> 100	22.9	> 100	91.7	17.8	67.6	> 100	> 100	> 100	79.7	28.1
c1ccc2c(c1)c1ccccc1c1ccccc21	> 100	> 100	> 100	> 100	> 100	> 100	> 100	> 100	> 100	> 100	> 100	> 100	> 100	> 100	> 100	> 100	> 100	> 100	> 100	> 100
CC(Cl)CN1c2ccccc2Sc2ccc(Cl)cc21 (stereo not drawn)	> 10	> 10	> 10	> 10	> 10	> 10	> 10	> 10	> 10	> 10	–	–	–	–	–	–	–	–	–	–

Source: PubChem BioAssay (NCI)
